{
  "source": "paper PMC7756341",
  "about": "“Liposomal FRET Assay Identifies Potent Drug‐Like Inhibitors of the Ceramide Transport Protein (CERT)” (Chemistry (Weinheim an Der Bergstrasse, Germany), 2020)",
  "key": {"HeLa cells [1]": {"system": "HeLa cells", "assay": "Sphingolipid content of treated HeLa cells by quantitative mass spectrometry", "assay_type": "cell-based", "details": "for Cer16 / Cer18 / Cer20 / Cer22 / Cer24 / Cer24:1 / Cer total / S1P / SM16 / SM18 / SM20 / SM22 / SM24 / SM24:1 / SM total / Sph / ratio total SM/Cer: HeLa, 42h, single replicates; for Cer16 / Cer18 / Cer20 / Cer22 / Cer24 / Cer24:1 / Cer total / S1P / SM16 / SM18 / SM20 / SM22 / SM24 / SM24:1 / SM total / Sph: 500.000 cells per sample", "outline": "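HeLa cells were plated in six-well plates at 177000 cells per well in DMEM containing 4mM L-glutamine, 10% FBS and 1% Penicillin-Streptomycin, then exposed to inhibitor. Harvested cells were adjusted to 500.000 per sample, extracted with methanol/chloroform (2:1) containing Cer17 and d31-SM16 internal standards, and quantified for ceramides and sphingomyelins by C8 reversed-phase HPLC coupled to ESI+ triple-quadrupole MS/MS.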"}, "HeLa cells [2]": {"system": "HeLa cells", "assay": "Cellular localization of BODIPY-ceramide by confocal microscopy", "assay_type": "cell-based", "details": "10 µM inhibitor, 2 h", "method": "5.1 Cellular Localization of BODIPY-Ceramide\nHeLa cells were seeded in 8 well chamber slides (ibidi µ-Slide 8 Well) in RPMI 1640 medium supplemented with 10% (v/v) heat‐inactivated FCS, 1 mM sodium pyruvate and 2 mM L-glutamine at 37 °C and 5% (v/v) CO2 in a humidified incubator. The day after, cells were incubated with inhibitors for 2 h at a concentration of 10 µM or left untreated by replacing the medium with fresh medium supplemented with the respective inhibitors. After 2 h of incubation, BODIPY FL C5-ceramide (Thermo Fisher) was added to a final concentration of 0,25 µM and imaging was immediately done using an LSM 780 laser scanning confocal microscope (Carl Zeiss). No additional wash steps were performed. After 1 h of incubation, DNA was counterstained using Hoechst 33342. For quantification of BODIPY-Ceramide trafficking, cells were transfected with pECFP-GalT the day before inhibitor incubation for the expression of an eCFP fusion of the human galactosyltransferase (GalT; amino acids 1-60), which localizes at the Golgi apparatus. After incubation with the respective inhibitors (see above), cells were imaged at 30 min post addition of BODIPY FL C5-ceramide. Mean BODIPY intensities of regions of interest surrounding eCFP-GalT-positive Golgi stacks were measured (40 cells per biological replicate, 4 biological replicates in total) using ImageJ software (Rasband, W.S., ImageJ, U. S. National Institutes of Health, Bethesda, Maryland, USA, https://imagej.nih.gov/ij/, 1997-2018) and divided by the total BODIPY intensity detected in the field of view. Quantification (Fig 10B) is expressed as normalized intensity ratio (GA/total).\nFigure S10. A Uptake of BODIPY FL C5-ceramide to HeLa cells assessed by normalized fluorescence intensity B Distribution of BODIPY FL C5-ceramide by normalized fluorescence […]\n(1 picture or pasted object on this page, not shown here)\nFigure S11. BODIPY-Ceramide trafficking. Confocal images showing distribution of BODIPY FL C5-ceramide (green) and Golgi apparatus costaining (eCFP-GalT; blue) in HeLa cells pretreated with 10 µM of respective inhibitors or left untreated. Figures show representative images (n = 4 biological replicates with 40 cells per biological replicate); scale bars, 10 µm."}},
  "note": "“And” between values parts separate entries of the source, which are not always exact repeats. Identical values can stand only once.",
  "data": [
    {"compound": "Cc1cc(C2=NOC(c3cc(Cl)cc(Cl)c3)(C(F)(F)F)C2)ccc1C(=O)NCC(=O)NCC(F)(F)F", "note": "(centres unmarked) [20D5, Fluralaner]", "values": [
      {"measurement": "effect on total sphingomyelin", "setting": "HeLa cells [1]; HeLa cells, 48 hours, serum-reduced medium", "result": "dose‐dependent reduction"},
      {"measurement": "Cer16", "setting": "HeLa cells [1]; 1 µM", "result": "45,48 pmol/sample and 40,19 pmol/sample and 39,73 pmol/sample"},
      {"measurement": "Cer18", "setting": "HeLa cells [1]; 1 µM", "result": "6,03 pmol/sample and 4,12 pmol/sample and 3,84 pmol/sample"},
      {"measurement": "Cer20", "setting": "HeLa cells [1]; 1 µM", "result": "2,67 pmol/sample and 1,37 pmol/sample and 1,12 pmol/sample"},
      {"measurement": "Cer22", "setting": "HeLa cells [1]; 1 µM", "result": "11,46 pmol/sample and 9,24 pmol/sample and 9,12 pmol/sample"},
      {"measurement": "Cer24", "setting": "HeLa cells [1]; 1 µM", "result": "40,67 pmol/sample and 36,50 pmol/sample and 37,27 pmol/sample"},
      {"measurement": "Cer24:1", "setting": "HeLa cells [1]; 1 µM", "result": "46,05 pmol/sample and 40,74 pmol/sample and 40,44 pmol/sample"},
      {"measurement": "Cer total", "setting": "HeLa cells [1]; 1 µM", "result": "152,37 pmol/sample and 131,71 pmol/sample and 131,97 pmol/sample"},
      {"measurement": "S1P", "setting": "HeLa cells [1]; 1 µM", "result": "1,21 pmol/sample and 1,34 pmol/sample and 1,10 pmol/sample"},
      {"measurement": "SM16", "setting": "HeLa cells [1]; 1 µM", "result": "1625,68 pmol/sample and 1717,57 pmol/sample and 1686,01 pmol/sample"},
      {"measurement": "SM18", "setting": "HeLa cells [1]; 1 µM", "result": "54,98 pmol/sample and 59,04 pmol/sample and 56,68 pmol/sample"},
      {"measurement": "SM20", "setting": "HeLa cells [1]; 1 µM", "result": "18,10 pmol/sample and 18,45 pmol/sample and 17,14 pmol/sample"},
      {"measurement": "SM22", "setting": "HeLa cells [1]; 1 µM", "result": "110,98 pmol/sample and 111,56 pmol/sample and 111,04 pmol/sample"},
      {"measurement": "SM24", "setting": "HeLa cells [1]; 1 µM", "result": "197,09 pmol/sample and 206,21 pmol/sample and 199,98 pmol/sample"},
      {"measurement": "SM24:1", "setting": "HeLa cells [1]; 1 µM", "result": "621,75 pmol/sample and 662,66 pmol/sample and 645,68 pmol/sample"},
      {"measurement": "SM total", "setting": "HeLa cells [1]; 1 µM", "result": "2628,58 pmol/sample and 2775,49 pmol/sample and 2716,53 pmol/sample"},
      {"measurement": "Sph", "setting": "HeLa cells [1]; 1 µM", "result": "3,74 pmol/sample and 3,07 pmol/sample and 3,46 pmol/sample"},
      {"measurement": "ratio total SM/Cer", "setting": "HeLa cells [1]; 1 µM", "result": "19,9 and 18,2 and 20,6"},
      {"measurement": "Cer16", "setting": "HeLa cells [1]; 2.5 µM", "result": "40,44 pmol/sample and 43,49 pmol/sample and 36,97 pmol/sample"},
      {"measurement": "Cer18", "setting": "HeLa cells [1]; 2.5 µM", "result": "4,61 pmol/sample and 4,98 pmol/sample and 3,95 pmol/sample"},
      {"measurement": "Cer20", "setting": "HeLa cells [1]; 2.5 µM", "result": "1,33 pmol/sample and 1,40 pmol/sample and 1,09 pmol/sample"},
      {"measurement": "Cer22", "setting": "HeLa cells [1]; 2.5 µM", "result": "9,74 pmol/sample and 10,99 pmol/sample and 8,69 pmol/sample"},
      {"measurement": "Cer24", "setting": "HeLa cells [1]; 2.5 µM", "result": "35,83 pmol/sample and 40,22 pmol/sample and 34,92 pmol/sample"},
      {"measurement": "Cer24:1", "setting": "HeLa cells [1]; 2.5 µM", "result": "37,47 pmol/sample and 43,87 pmol/sample and 37,54 pmol/sample"},
      {"measurement": "Cer total", "setting": "HeLa cells [1]; 2.5 µM", "result": "129,42 pmol/sample and 144,94 pmol/sample and 123,16 pmol/sample"},
      {"measurement": "S1P", "setting": "HeLa cells [1]; 2.5 µM", "result": "1,21 pmol/sample and 1,29 pmol/sample (2×)"},
      {"measurement": "SM16", "setting": "HeLa cells [1]; 2.5 µM", "result": "1311,55 pmol/sample and 1447,18 pmol/sample and 1450,27 pmol/sample"},
      {"measurement": "SM18", "setting": "HeLa cells [1]; 2.5 µM", "result": "48,19 pmol/sample and 50,02 pmol/sample and 51,79 pmol/sample"},
      {"measurement": "SM20", "setting": "HeLa cells [1]; 2.5 µM", "result": "16,11 pmol/sample and 17,46 pmol/sample and 16,39 pmol/sample"},
      {"measurement": "SM22", "setting": "HeLa cells [1]; 2.5 µM", "result": "98,76 pmol/sample and 109,23 pmol/sample and 102,97 pmol/sample"},
      {"measurement": "SM24", "setting": "HeLa cells [1]; 2.5 µM", "result": "179,29 pmol/sample and 202,61 pmol/sample and 193,22 pmol/sample"},
      {"measurement": "SM24:1", "setting": "HeLa cells [1]; 2.5 µM", "result": "587,13 pmol/sample and 553,18 pmol/sample and 603,33 pmol/sample"},
      {"measurement": "SM total", "setting": "HeLa cells [1]; 2.5 µM", "result": "2401,78 pmol/sample and 2207,08 pmol/sample and 2429,82 pmol/sample"},
      {"measurement": "Sph", "setting": "HeLa cells [1]; 2.5 µM", "result": "3,04 pmol/sample and 3,17 pmol/sample and 2,91 pmol/sample"},
      {"measurement": "ratio total SM/Cer", "setting": "HeLa cells [1]; 2.5 µM", "result": "19,5 and 17,1 and 16,8"},
      {"measurement": "Cer16", "setting": "HeLa cells [1]; 5 µM", "result": "48,26 pmol/sample and 50,29 pmol/sample and 47,46 pmol/sample"},
      {"measurement": "Cer18", "setting": "HeLa cells [1]; 5 µM", "result": "5,41 pmol/sample and 5,92 pmol/sample and 5,34 pmol/sample"},
      {"measurement": "Cer20", "setting": "HeLa cells [1]; 5 µM", "result": "1,35 pmol/sample and 1,41 pmol/sample and 1,29 pmol/sample"},
      {"measurement": "Cer22", "setting": "HeLa cells [1]; 5 µM", "result": "9,51 pmol/sample and 10,83 pmol/sample and 9,59 pmol/sample"},
      {"measurement": "Cer24", "setting": "HeLa cells [1]; 5 µM", "result": "33,23 pmol/sample and 39,15 pmol/sample and 38,78 pmol/sample"},
      {"measurement": "Cer24:1", "setting": "HeLa cells [1]; 5 µM", "result": "35,26 pmol/sample and 38,24 pmol/sample and 35,25 pmol/sample"},
      {"measurement": "Cer total", "setting": "HeLa cells [1]; 5 µM", "result": "133,01 pmol/sample and 145,85 pmol/sample and 137,71 pmol/sample"},
      {"measurement": "S1P", "setting": "HeLa cells [1]; 5 µM", "result": "1,32 pmol/sample and 1,22 pmol/sample and 1,19 pmol/sample"},
      {"measurement": "SM16", "setting": "HeLa cells [1]; 5 µM", "result": "1128,33 pmol/sample and 1262,96 pmol/sample and 1233,63 pmol/sample"},
      {"measurement": "SM18", "setting": "HeLa cells [1]; 5 µM", "result": "43,19 pmol/sample and 47,39 pmol/sample and 44,90 pmol/sample"},
      {"measurement": "SM20", "setting": "HeLa cells [1]; 5 µM", "result": "13,45 pmol/sample and 15,19 pmol/sample and 13,75 pmol/sample"},
      {"measurement": "SM22", "setting": "HeLa cells [1]; 5 µM", "result": "74,74 pmol/sample and 85,38 pmol/sample and 82,05 pmol/sample"},
      {"measurement": "SM24", "setting": "HeLa cells [1]; 5 µM", "result": "132,70 pmol/sample and 158,23 pmol/sample and 155,99 pmol/sample"},
      {"measurement": "SM24:1", "setting": "HeLa cells [1]; 5 µM", "result": "419,73 pmol/sample and 481,61 pmol/sample and 461,72 pmol/sample"},
      {"measurement": "SM total", "setting": "HeLa cells [1]; 5 µM", "result": "1812,15 pmol/sample and 2050,77 pmol/sample and 1992,04 pmol/sample"},
      {"measurement": "Sph", "setting": "HeLa cells [1]; 5 µM", "result": "3,25 pmol/sample and 3,29 pmol/sample and 4,27 pmol/sample"},
      {"measurement": "ratio total SM/Cer", "setting": "HeLa cells [1]; 5 µM", "result": "13,6 and 14,1 and 14,5"},
      {"measurement": "effect on intracellular distribution of BODIPY-Cer", "setting": "HeLa cells [2]", "result": "significantly influenced"}
    ]}
  ]
}
